Assay results from patent publication US20210139453A1, “(HETERO)ARYL SULFONAMIDE COMPOUND AND FORMULATION FOR CONTROLLING HARMFUL ORGANISMS” (Nippon Soda Co., Ltd., priority 2018, published 2021).

The compounds below were run on Mythimna separata (assay: Efficacy test against Mythimna separata (artificial feed mixed with emulsion)). Conditions: in vivo.
From the text: Five parts of the (hetero)aryl sulfonamide compound of the present invention, 93.6 parts of dimethylformamide and 1.4 parts of a polyoxyethylene alkyl aryl ether were mixed together and dissolved to obtain an emulsion (I) containing 5% of the active ingredient.
For the control, 93.6 parts of dimethylformamide and 1.4 parts of a polyoxyethylene alkyl aryl ether were mixed together and dissolved to obtain an emulsion (II).
Insect mortality rate(%)=(number of dead insects/number of test insects)×100 Nematode mortality rate(%)=(number of dead nematodes/number of test nematodes)×100
First, 0.8 g of a commercially-available artificial feed (Insecta LFS, manufactured by Nosan Corporation) and 1 μl of the emulsion (I) were mixed well, and thereby, a test feed was obtained. Subsequently, 0.2 g of the test feed was placed in each of the treatment areas of a plastic test container (volume: 1.4 ml). Subsequently, two second-instar larvae of Mythimna separata were inoculated into each treatment area, and a plastic lid was placed on the test container to prevent the larvae from escaping. The closed container was placed in a thermostatic chamber at 25° C. On the 5th day therefrom, the insect mortality rate and the amount of feed consumed were checked. The test was repeated.
In addition, for a control area, the insect mortality rate and the amount of feed consumed were checked in the same manner as that described in Test Example 1, with the exception of replacing the emulsion (I) with the emulsion (II).

Structure (SMILES) | insect mortality rate against Mythimna separata [%]
O=S(=O)(Nc1cc(C(F)(F)F)ccc1-n1ccc(-c2ccc(C(F)(F)F)cc2)n1)C(F)(F)F [Compound 2-22] | 100
O=S(=O)(CC(F)(F)F)Nc1cc(C(F)(F)F)cnc1-n1ccc(C(F)(F)F)n1 [Compound 3-8] | 100
O=S(=O)(Nc1cc(C(F)(F)F)ccc1-n1cc(-c2ccc(Cl)cc2)cn1)C(F)(F)F [Compound 2-16] | 100
O=S(=O)(Nc1cc(C(F)(F)F)ccc1-n1cnc(-c2ccc(Br)cc2)n1)C(F)(F)F [Compound 2-15] | 100
O=S(=O)(Nc1cc(C(F)(F)F)ccc1-c1nc(-c2ccc(Cl)cc2)no1)C(F)(F)F [Compound 2-25] | 100
O=S(=O)(Nc1cc(C(F)(F)F)ccc1-c1nc2cc(C(F)(F)F)ccc2[nH]1)C(F)(F)F [Compound 2-6] | 100
O=S(=O)(N(c1cc(C(F)(F)F)ccc1-c1nc2cc(C(F)(F)F)ccc2[nH]1)S(=O)(=O)C(F)(F)F)C(F)(F)F [Compound 2-5] | 100
O=S(=O)(Nc1cc(C(F)(F)F)cnc1-c1cccc(C(F)(F)F)n1)C(F)(F)F [Compound 3-47] | 100
O=S(=O)(Nc1cc(C(F)(F)F)ccc1-c1nc2cc(Cl)c(Cl)cc2[nH]1)C(F)(F)F [Compound 2-3] | 100
CCS(=O)(=O)Nc1cc(C(F)(F)F)ccc1-n1cnc(-c2ccc(Br)cc2)n1 [Compound 2-17] | 100
O=S(=O)(Nc1cc(C(F)(F)F)ccc1-c1ccc(C(F)(F)F)cn1)C(F)(F)F [Compound 2-36] | 100
Cc1c(Br)c(C(F)(F)F)nn1-c1ncc(C(F)(F)F)cc1NS(=O)(=O)C(F)(F)F [Compound 3-46] | 100
CCS(=O)(=O)Nc1cc(C(F)(F)F)ccc1-c1nc2cc(F)c(F)cc2[nH]1 [Compound 2-14] | 100
O=S(=O)(Nc1cc(C(F)(F)F)ccc1-c1nc2cc(F)c(F)cc2[nH]1)C(F)(F)F [Compound 2-8] | 100
O=S(=O)(Nc1cc(F)c(F)cc1-c1nc2cc(F)c(F)cc2[nH]1)C(F)(F)F [Compound 2-9] | 100
O=S(=O)(Nc1cc(C(F)(F)F)ccc1-n1ccc(-c2ccc(Cl)cc2)n1)C(F)(F)F [Compound 2-18] | 100
